Assay results published in patent US7868013B2, “Cycloalkyl substituted pyrimidinediamine compounds and their uses” (Rigel Pharmaceuticals, Inc., priority 2004, dated 2011).
Structures can show the parent of a compound that is named as a salt. Where two headings read alike, the source gives them in different places. One block for each compound: values may come before it.

Tests used:
A549 (lung carcinoma) = assay: In vitro antiproliferation assay, A549 cells (TABLE 1 6 point assay; TABLE 2); format: cell-based
Procedure: (§1) Certain compounds were tested against other cell types for their ability to inhibit proliferation in standard antiproliferation assays.

[1] = test system: H1299 (non-small cell lung carcinoma); assay: In vitro antiproliferation assay, H1299 cells (TABLE 1 6 point assay; TABLE 2); format: cell-based
Procedure: as §1

[2] = Homo sapiens, A549, 6 point assay, A549 cells, read-out: IC50, A549 cells
[3] = Homo sapiens, NCI-H1299, 6 point assay, H1299 cells, read-out: IC50, H1299 cells
[4] = Homo sapiens, A549, A549 cells, 6 point assay, read-out: A549, 6pt (IC50, inhibition of proliferation)
[5] = Homo sapiens, NCI-H1299, H1299 cells, 6 point assay, read-out: H1299, 6pt (IC50, inhibition of proliferation)
[6] = H1299 cells, 6 point assay, read-out: H1299, 6pt (IC50, inhibition of proliferation)

IC50 (A549 (lung carcinoma); [2]): 100 to 1000 nM
IC50 [1, 3]: 100 to 1000 nM
SMILES: NC(=O)C1CCCC1Nc1nc(Nc2ccc(N3CCOCC3)cc2)ncc1F (stereo not drawn) [compound 198, N4-(2-Carboxamidocyclopentyl)-5-fluoro-N2-(4-morpholinophenyl)-2,4-pyrimidinediamine]

IC50 (A549 (lung carcinoma); [4]): ≤ 100 nM
IC50 [1, 5]: ≤ 100 nM
SMILES: CNC(=O)C1C2C=CC(C2)C1Nc1nc(Nc2ccc3c(ccn3CCN(C)C)c2)ncc1F (racemic) [compound 183, Racemic-(2-exo,3-exo)-N2-[1-(2-dimethylaminoethyl)indol-5-yl]-5-fluoro-N4-[3-methylaminocarbonylbicyclo[2.2.1]hept-5-en-2-yl)-2,4-pyrimidinediamine]

IC50 (A549 (lung carcinoma); [2]): ≤ 100 nM
IC50 [1, 3]: ≤ 100 nM
SMILES: CN1CCN(c2ccc(Nc3ncc(F)c(NC4C5C=CC(C5)C4C(N)=O)n3)cc2Cl)CC1 (racemic) [compound 233, Racemic-(2-exo,3-exo)-N4-(3-aminocarbonylbicyclo[2.2.1]hept-5-en-2-yl)-N2-[3-chloro-4-(4-methylpiperazin-1-yl)phenyl]-5-fluoro-2,4-pyrimidinediamine]

IC50 (A549 (lung carcinoma); [2]): 100 to 1000 nM
IC50 [1, 3]: 100 to 1000 nM
SMILES: COc1cc(Nc2ncc(F)c(N[C@@H]3[C@H](C(N)=O)[C@H]4C=C[C@@H]3C4)n2)ccc1N1C(=O)CN(C)CC1=O (racemic) [compound 266, Racemic-(2-exo,3-exo)-N4-(3-aminocarbonylbicyclo[2.2.1]hept-5-en-2-yl)-5-fluoro-N2-[3-methoxy-4-(4-methyl-2,6-dioxopiperazino)phenyl]-2,4-pyrimidinediamine]

IC50 (A549 (lung carcinoma); [2]): 1000 to 10000 nM
IC50 [1, 3]: 1000 to 10000 nM
SMILES: COC(=O)[C@@H]1CC[C@H](Nc2nc(Nc3ccc(N4CCN(C)CC4)c(C)c3)ncc2F)C1 [compound 215, (1S,3R)-N4-(3-Methoxycarbonylcyclopent-1-yl)-5-fluoro-N2-[3-methyl-4-(4-methylpiperazin-1-yl)phenyl]-2,4-pyrimidinediamine]

IC50 (A549 (lung carcinoma); [4]): 1000 to 10000 nM
IC50 [1, 5]: 1000 to 10000 nM
SMILES: Cc1cc(Nc2ncc(F)c(N[C@H]3[C@@H](C(N)=O)[C@H]4C=C[C@@H]3C4)n2)ccc1N1CCN(C)CC1 [compound 155, (1S,2R,3S,4R)-N4-(3-Aminocarbonylbicyclo[2.2.1]hept-5-en-2-yl)-5-fluoro-N2-[3-methyl-4-(4-methylpiperazin-1-yl)phenyl]-2,4-pyrimidinediamine]

IC50 (A549 (lung carcinoma); [4]): ≤ 100 nM
IC50 [1, 5]: ≤ 100 nM
SMILES: CN1CCC(Oc2ccc(Nc3ncc(F)c(N[C@H]4[C@@H](C(N)=O)[C@@H]5C=C[C@H]4C5)n3)cc2)CC1 [compound 146, (1R,2R,3S,4S)-N4-(3-Aminocarbonylbicyclo[2.2.1]hept-5-en-2-yl)-5-fluoro-N2-[4-(1-methylpiperidin-4-yloxy)phenyl]-2,4-pyrimidinediamine]

IC50 (A549 (lung carcinoma); [4]): 100 to 1000 nM
IC50 [1, 5]: 100 to 1000 nM
SMILES: Cc1cc(Nc2ncc(F)c(N[C@H]3[C@@H](C(=O)NC(C)c4ccccc4)[C@@H]4C=C[C@H]3C4)n2)ccc1N1CCN(C)CC1 (stereo partly drawn) [compound 109, (1R,2R,3S,4S)-N4-5-Fluoro-N4-(3-(R)-alpha-methylbenzylaminocarbonylbicyclo[2.2.1]hept-5-en-2-yl)-N2-[3-methyl-4-(4-methylpiperazin-1-yl)phenyl]-2,4-pyrimidinediamine]

IC50 (A549 (lung carcinoma); [2]): 1000 to 10000 nM
IC50 [1, 3]: 1000 to 10000 nM
SMILES: Cc1ccc(Nc2ncc(F)c(NC3CCCC3C(N)=O)n2)cc1 (stereo not drawn) [compound 212, (cis)-N4-(2-Carboxamidocyclopent-1-yl)-5-fluoro-N2-(4-methylphenyl)-2,4-pyrimidinediamine]

IC50 (A549 (lung carcinoma); [2]): 1000 to 10000 nM
IC50 [1, 3]: 1000 to 10000 nM
SMILES: COC(=O)[C@H]1CCC[C@@H]1Nc1nc(Nc2ccc(N3CCN(C)CC3)c(C)c2)ncc1F [compound 208, (1S,2S)-5-fluoro-N4-(2-methoxycarbonylcyclopent-1-yl)-N2-[3-methyl-4-(4-methylpiperazino)phenyl]-2,4-pyrimidinediamine]

More lines, now with the values behind:

SMILES: CN1CCN(c2cccc(Nc3ncc(F)c(NC4C5C=CC(C5)C4C(N)=O)n3)c2)CC1 (racemic) [compound 231, Racemic-(2-exo,3-exo)-N4-(3-aminocarbonylbicyclo[2.2.1]hept-5-en-2-yl)-5-fluoro-N2-[3-(4-methylpiperazin-1-yl)]phenyl-2,4-pyrimidinediamine]
IC50 (A549 (lung carcinoma); [2]): ≤ 100 nM
IC50 [1, 3]: ≤ 100 nM

SMILES: Cc1cc(Nc2ncc(F)c(N[C@H]3[C@@H](C(N)=O)[C@@H]4C=C[C@H]3C4)n2)ccc1N1CCN(C)CC1 [compound 140, (1R,2R,3S,4S)-N4-(3-Aminocarbonylbicyclo[2.2.1]hept-5-en-2-yl)-5-fluoro-N2-[3-methyl-4-(4-methylpiperazin-1-yl)phenyl]-2,4-pyrimidinediamine Methanesulfonic Acid Salt]
IC50 [1, 6]: ≤ 100 nM

SMILES: Cc1cc(Nc2ncc(F)c(N[C@H]3[C@@H](C(N)=O)[C@@H]4C=C[C@H]3C4)n2)ccc1N1CCN(C)CC1 [compound 141, (1R,2R,3S,4S)-N4-(3-Aminocarbonylbicyclo[2.2.1]hept-5-en-2-yl)-5-fluoro-N2-[3-methyl-4-(4-methylpiperazin-1-yl)phenyl]-2,4-pyrimidinediamine Nitric Acid Salt]
IC50 [1, 5]: ≤ 100 nM

SMILES: CN(C)CCN1CCc2cc(Nc3ncc(F)c(N[C@@H]4[C@H](C(N)=O)[C@H]5C=C[C@@H]4C5)n3)ccc21 (racemic) [compound 160, Racemic-(2-exo,3-exo)-N4-[3-aminocarbonylbicyclo[2.2.1]hept-5-en-2-yl)-N2-[1-(2-dimethylaminoethyl)-2,3-dihydroindol-5-yl]-5-fluoro-2,4-pyrimidinediamine]
IC50 (A549 (lung carcinoma); [4]): 100 to 1000 nM
IC50 [1, 5]: ≤ 100 nM

SMILES: NC(=O)C1CCCC1Nc1nc(Nc2cccc(N3CCOCC3)c2)ncc1F (stereo not drawn) [compound 200, N4-(2-Carboxamidocyclopentyl)-5-fluoro-N2-(3-morpholinophenyl)-2,4-pyrimidinediamine]
IC50 (A549 (lung carcinoma); [2]): 100 to 1000 nM
IC50 [1, 3]: 1000 to 10000 nM

SMILES: Cc1cc(Nc2ncc(F)c(NC3(C(N)=O)CC=CC3)n2)ccc1N1CCN(C)CC1 [compound 238, N4-(1-Aminocarbonylcyclopent-3-ene-1-yl)-5-fluoro-N2-[3-methyl-4-(4-methylpiperazin-1-yl)phenyl]-2,4-pyrimidinediamine]
IC50 (A549 (lung carcinoma); [2]): 1000 to 10000 nM
IC50 [1, 3]: > 10000 nM

SMILES: CN1CCN(c2ccc(Nc3ncc(F)c(NC4CCCC4C(N)=O)n3)cc2C(F)(F)F)CC1 (stereo not drawn) [compound 207, (cis)-N4-(2-Carboxamidocyclopent-1-yl)-5-fluoro-N2-[4-(4-methylpiperazino)-3-trifluoromethylphenyl]-2,4-pyrimidinediamine Bis Hydrogen Chloride Salt]
IC50 (A549 (lung carcinoma); 6 point assay, A549 cells, read-out: IC50, A549 cells): 100 to 1000 nM
IC50 ([1]; 6 point assay, H1299 cells, read-out: IC50, H1299 cells): 1000 to 10000 nM

SMILES: CN1CCC(c2cccc(Nc3ncc(F)c(N[C@H]4[C@@H](C(N)=O)[C@@H]5C=C[C@H]4C5)n3)c2)CC1 [compound 275, (1R,2R,3S,4S)-N4-(3-Aminocarbonylbicyclo[2.2.1]hept-5-en-2-yl)-5-fluoro-N2-[3-(1-methylpiperidin-4-yl)phenyl]-2,4-pyrimidinediamine]
IC50 (A549 (lung carcinoma); [2]): ≤ 100 nM
IC50 [1, 3]: ≤ 100 nM

SMILES: CNC(=O)C1C2C=CC(C2)C1Nc1nc(Nc2ccc3c(c2)CCN3CCN(C)C)ncc1F (racemic) [compound 177, Racemic-(2-exo,3-exo)-N2-[1-(2-dimethylaminoethyl)-2,3-dihydroindol-5-yl]-5-fluoro-N4-[3-N-methylaminocarbonylbicyclo[2.2.1]hept-5-ene-2-yl]-2,4-pyrimidinediamine]
IC50 (A549 (lung carcinoma); [4]): ≤ 100 nM
IC50 [1, 5]: 100 to 1000 nM

SMILES: Cc1cc(Nc2ncc(F)c(NC3C4C=CC(C4)C3C(N)=O)n2)ccc1N1CC(C)OC(C)C1 (racemic) [Compound 284, Racemic-(2-exo,3-exo)-N4-(3-aminocarbonylbicyclo[2.2.1]hept-5-en-2-yl)-N2-[4-(2,6-dimethylmorpholino)-3-methylphenyl]-5-fluoro-2,4-pyrimidinediamine]
IC50 (A549 (lung carcinoma); [2]): ≤ 100 nM
IC50 [1, 3]: ≤ 100 nM

SMILES: Cc1cc(Nc2ncc(F)c(N[C@H]3[C@@H](C(N)=O)[C@@H]4C=C[C@H]3C4)n2)ccc1N1CCN(C)CC1 [compound 143, (1R,2R,3S,4S)-N4-(3-Aminocarbonylbicyclo[2.2.1]hept-5-en-2-yl)-5-fluoro-N2-[3-methyl-4-(4-methylpiperazin-1-yl)phenyl]-2,4-pyrimidinediamine (S)- Mandelic Acid Salt]
IC50 [1, 6]: ≤ 100 nM

SMILES: Cc1cc(Nc2ncc(F)c(N[C@H]3[C@@H](C(N)=O)[C@@H]4C=C[C@H]3C4)n2)ccc1N1CCN(C)CC1 [compound 144, (1R,2R,3S,4S)-N4-(3-Aminocarbonylbicyclo[2.2.1]hept-5-en-2-yl)-5-fluoro-N2-[3-methyl-4-(4-methylpiperazin-1-yl)phenyl]-2,4-pyrimidinediamine p- Toluenesulfonic Acid Salt]
IC50 [1, 6]: ≤ 100 nM

SMILES: Cc1cc(Nc2ncc(F)c(N[C@H]3[C@@H](C(N)=O)[C@@H]4C=C[C@H]3C4)n2)ccc1N1CCN(C)CC1 [compound 139, (1R,2R,3S,4S)-N4-(3-Aminocarbonylbicyclo[2.2.1]hept-5-en-2-yl)-5-fluoro-N2-[3-methyl-4-(4-methylpiperazin-1-yl)phenyl]-2,4-pyrimidinediamine Trifluoroacetic Acid Salt]
IC50 [1, 6]: ≤ 100 nM

SMILES: Cc1cc(Nc2ncc(F)c(N[C@H]3[C@@H](C(N)=O)[C@@H]4C=C[C@H]3C4)n2)ccc1N1CCN(C)CC1 [compound 142, (1R,2R,3S,4S)-N4-(3-Aminocarbonylbicyclo[2.2.1]hept-5-en-2-yl)-5-fluoro-N2-[3-methyl-4-(4-methylpiperazin-1-yl)phenyl]-2,4-pyrimidinediamine Sulfuric Acid Salt]
IC50 [1, 6]: ≤ 100 nM
